One data set is described as follows: in vivo. To be noted: rat, po, read-out: Acute toxicity LD 50. The protocol: Groups of 5 male CH. River rats, having an average weight of 125 g, kept on a water diet for 18 hours prior to the test, are orally administered the test materials, dissolved in neutral olive oil (1 ml/100 g), at dosages of 250-500-1000 and 2000 mg/kg.
The death rate is recorded 7 days after the administration: the lethal dose 50 (LD 50) is determined according to the method by Litchfield & Wilcoxon.

The nature of data set [1]: Anti-inflammatory activity: carrageenin-induced plantar edema test (Winter). It is filed as in vivo. To be noted: Rattus norvegicus; rats, oral, 1 hour before 1% carrageenin; mean of 7 hourly determinations; dosages in method 25-50-100 mg/kg; read-out: Anti-inflammatory activity ID 50. The protocol: The test selected is the test of the carrageenin-induced plantar edema, according to Winter (Proc. Soc. Exp. Biol., 1961, 111, 544). […] A fourth group (control) is administered only neutral olive oil (1 ml/100 g). One hour after the treatment, 0.1 ml of a 1% carrageenin suspension is injected in the left plantar aponevrosis. The intensity of the edema is evaluated by immersing the inflamed paw in a mercury plethystometer. The percent inhibition of the edema is calculated from the mean value of the 7 determinations made hourly after carrageenin administration. The dosage which inhibits inflammation by 50% (ID 50) is determined in the same manner as previously described.
On the technique in general: Carrageenan injected into the paw causes an acute inflammation.

The nature of data set [2]: Anti-pyretic activity: brewer's yeast-induced fever. Type of data set: in vivo. To be noted: Rattus norvegicus; rats, oral, 17 hours after brewer's yeast; mean of 5 hourly determinations; dosages in method 25-50-100 mg/kg; read-out: Anti-pyretic activity ID 50. The method, then: After determination of the rectal temperature, rats are sub-cutaneously administered 1 ml/100 g of a 20% brewer's yeast suspension, and are put on a water diet. 17 hours later, their temperature is again determined. The mean increase of the rectal temperature, under such experimental conditions, is about 1.5° C. The various test materials are then orally administered to groups of 10 rats (average weight: 140 g) at dosages of 25-50 and 100 mg/kg. A fourth group (control) is administered only olive oil (1 ml/100 g). The temperature drop subsequent to the treatment is followed hourly, for a period of time of 5 hours. The mean percent inhibition is calculated by effecting the mean of the 5 determinations, with respect to the value 1.5° C.

Data set [3] in a line: Antalgic activity: phenylbenzoquinone-induced writhing (Sigmund, modified). It is filed as in vivo, male Ch. River mice. To be noted: Mus musculus, po; mice, p.o., 30 minutes before phenylbenzoquinone; spasms counted fifth to tenth minute; dosages in method 25-50-100 mg/kg; read-out: Antalgic activity ID 50. The protocol:
The method used is that according to Sigmund and co-workers (Soc. Exp. Biol. Med. 1957, 95, 729) as modified by Hendershot & Forsaith (J. Pharm. Exp. Therap. 1959, 125, 237-240) and Lines & Gouret (J. Pharm. (Paris) 1972, 3, 513-515). Intraperitoneal administration of 0.25 ml/20 g, in mice, of a 0.02% phenylbenzoquinone solution in 5% alcohol, produces the development of a pain syndrome which is characterized by writhing movements and by hollow flanks. Treatment of groups of 10 male Ch. River mice (average weight: 20 g) at dosages of 25-50 and 100 mg/kg p.o. (a control group being administered only neutral olive oil; 0.5 ml/20 g) is effected 30 minutes prior to phenylbenzoquinone administration. The ID 50 is calculated as previously indicated, from the percent inhibition of the spasms counted from the fifth to the tenth minute that follow the injection of the algogenic agent.
In general terms: In writhing tests, fewer writhes than in controls are read as antinociception.

Data set [4] can be described thus: Ulcerogenic activity (Robert & Nezamis, modified by Lwoff). Set-up: species or system rats of Ch. River strain. To be noted: rat, in vivo. The method, then: The technique used is that according to Robert & Nezamis (Proc. Soc. Exp. Biol. Med., 1958,99,443-447) as modified by Lwoff (J. Pharmacol. (Paris) 1971, 2, 81-83).
Groups of 20 rats of Ch. River strain (average weight: 130 g) kept on a water diet for the 24 hours prior to the test, are orally administered the test materials, at dosages of 50-100-200-400 and 800 mg/kg. A reference group is administered only neutral olive oil, at a dosage of 1 ml/100 g.
Six hours later, the animals are sacrificed by bulbar trauma, after which their stomachs are cut out, opened along the great curvature and rated according to a scale from 0 to 3, according to the extent of the ulceration.
The ulceration index for each dosage is calculated according to the following formula: [formula]
With this scoring method, a 100% ulceration index is equal to 300. The 50% ulcerogenic dosage (UD 50) is that which corresponds to an index of 150.

Like-named read-outs stand apart in the source and are kept apart here. Bounds are passed on as bounds.

For the compound `CC(C)Cc1cccc2c(C(C)C(=O)O)cccc12` (centres unmarked) [Derivative 2, 2-[5-isobutyl-1-naphthyl]propionic acid], in the data set “in vivo”, the LD50 at 168 h came to 130 mg/kg. For the same compound, the ED50 was 5 mg/kg in data set [1], below 1 mg/kg in data set [2] and 4 mg/kg in data set [3].
For `CC(C)Cc1cccc2c(CC(=O)O)cccc12` [Derivative 1, [5-isobutyl-1-naphthyl]acetic acid], the LD50 at 168 h in “in vivo” is 600 mg/kg. Also, the figures for the ED50 in data set [1], in data set [2] and in data set [3] were 15 mg/kg, 0.7 mg/kg and 24 mg/kg, respectively. The TD50 at 6 h in data set [4] (po) is above 800 mg/kg.
Consider `COc1ccc2cc([C@H](C)C(=O)O)ccc2c1` [naproxen, reference compound], for which the ED50 came out at 3 mg/kg in data set [1], 4.1 mg/kg in data set [2] and 10.6 mg/kg in data set [3]. The TD50 at 6 h in data set [4] (rats, oral, 6 hours, dose giving ulceration index 150, dosages in method 50-800 mg/kg, read-out: Ulcerogenic activity UD 50) stood at 43 mg/kg.
For `CC(C)Cc1ccc(C(C)C(=O)O)cc1` (centres unmarked) [ibuprofen, reference compound], the ED50 amounted to 38 mg/kg in data set [1], 12 mg/kg in data set [2] and 9 mg/kg in data set [3]. In addition, in data set [4] (po), the TD50 at 6 h is 220 mg/kg.

The record behind these values is patent US4356188A, “1-Naphthyl-acetic acid derivatives and their therapeutic applications” (Institut de Recherche Scientifique "I.R.S.", priority 1978, dated 1982).
